# Tested on: FL-SMN mRNA (SMN transcript containing exons 7 and 8)
# Assay: Live-cell assay to measure changes in FL-SMN mRNA levels (qPCR) after exposure to the compounds
# Assay type: cell-based, human
# Conditions: fibroblasts derived from patients SMA (GM03813); 24 hours incubation
# How it was run: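 SMA patient fibroblasts (GM03813) in DMEM/10% FBS were treated with compound (0.1% DMSO final) for 24 h. FL-SMN and Δ7 mRNA were measured by RT-qPCR against oligo DNA standard curves and normalised to GAPDH. Values are % of the DMSO control, binned by asterisk from ≥100% to ≥180%.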
row,SMILES,"Percentage of increase (FL-SMN mRNA standardized against GAPDH, DMSO control set as 100%)"
1,"CCc1cn2cc(-c3ccc4nc(C5CCN(C)CC5)[nH]c(=O)c4c3)ccc2n1 [Example 68, 6-(2-ethylimidazo[1,2-a]pyridin-6-yl)-2-(1-methylpiperidin-4-yl)quinazolin-4(3H)-one]",* (equal to or higher than 100% but lower than 120%)
2,"Cc1cn2cc(-c3ccc4nc(C5CCN(C)CC5)n(C)c(=O)c4c3)ccc2n1 [Example 69, 3-methyl-6-(2-methylimidazo[1,2-a]pyridin-6-yl)-2-(1-methylpiperidin-4-yl)quinazolin-4(3H)-one]",** (equal to or higher than 120% but lower than 150%)
3,"Cc1cn2cc(-c3ccc4c(c3)c(=O)nc(C3CCN(C)CC3)n4C)ccc2n1 [Example 70, 1-methyl-6-(2-methylimidazo[1,2-a]pyridin-6-yl)-2-(1-methylpiperidin-4-yl)quinazolin-4(1H)-one]",* (equal to or higher than 100% but lower than 120%)
4,"Cc1nc2c(C)cc(-c3ccc4nc(C5CCN(C)CC5)[nH]c(=O)c4c3)cc2o1 [Example 71, 6-(2,4-dimethyl-1,3-benzoxazol-6-yl)-2-(1-methylpiperidin-4-yl)quinazolin-4(3H)-one]",* (equal to or higher than 100% but lower than 120%)
5,"Cc1nc2cc(-c3ccc4nc(C5CCN(C)CC5)[nH]c(=O)c4c3)ccc2o1 [Example 72, 6-(2-methyl-1,3-benzoxazol-5-yl)-2-(1-methylpiperidin-4-yl)quinazolin-4(3H)-one]",* (equal to or higher than 100% but lower than 120%)
6,"Cc1cn2cc(-c3ccc4nc(C5CCN(CC(F)(F)F)CC5)[nH]c(=O)c4c3)ccc2n1 [Example 73, 6-(2-methylimidazo[1,2-a]pyridin-6-yl)-2-[1-(2,2,2-trifluoroethyl)piperidin-4-yl]quinazolin-4(3H)-one]",* (equal to or higher than 100% but lower than 120%)
7,"Cc1cn2cc(-c3ccc4nc(C5CCN(C6CC6)CC5)[nH]c(=O)c4c3)ccc2n1 [Example 74, 2-(1-cyclopropylpiperidin-4-yl)-6-(2-methylimidazo[1,2-a]pyridin-6-yl)quinazolin-4(3H)-one]",** (equal to or higher than 120% but lower than 150%)
8,"Cc1cn2cc(-c3ccc4nc(C5CCN(C)CC5)[nH]c(=O)c4c3)cc(C(F)(F)F)c2n1 [Example 75, 2-(1-methylpiperidin-4-yl)-6-[2-methyl-8-(trifluoromethyl)imidazo [1,2-a]pyridin-6-yl]quinazolin-4(3H)-one]",** (equal to or higher than 120% but lower than 150%)
9,"COc1cnc(-c2nc3ccc(N4CCN(C)CC4)cc3c(=O)[nH]2)cc1C [Example 76, 2-(5-methoxy-4-methylpyridin-2-yl)-6-(4-methylpiperazin-1-yl)quinazolin-4(3H)-one]",* (equal to or higher than 100% but lower than 120%)
10,"CN1CCC(c2nc3ccc(-c4ccc(-c5cnn(C)c5)cc4)cc3c(=O)[nH]2)CC1 [Example 77, 2-(1-methylpiperidin-4-yl)-6-[4-(1-methyl-1H-pyrazol-4-yl)phenyl]quinazolin-4(3H)-one]",* (equal to or higher than 100% but lower than 120%)
11,"Cc1cn2nc(-c3nc4ccc(N5CCN(C)CC5=O)cc4c(=O)[nH]3)cc2c(C)n1 [Example 78, 2-(4,6-dimethylpyrazolo[1,5-a]pyrazin-2-yl)-6-(4-methyl-2-oxopiperazin-1-yl)quinazolin-4(3H)-one]",* (equal to or higher than 100% but lower than 120%)
12,"Cc1cn2nc(-c3nc4ccc(N5CCOCC5)cc4c(=O)[nH]3)cc2c(C)n1 [Example 79, 2-(4,6-dimethylpyrazolo[1,5-a]pyrazin-2-yl)-6-(morpholin-4-yl)quinazolin-4(3H)-one]",* (equal to or higher than 100% but lower than 120%)
13,"Cc1cn2ccc(-c3ccc4ncn(C5CCN(C)CC5)c(=O)c4c3)cc2n1 [Example 80, 6-(2-methylimidazo[1,2-a]pyridin-7-yl)-3-(1-methylpiperidin-4-yl)quinazolin-4(3H)-one]",* (equal to or higher than 100% but lower than 120%)
14,"Cc1cn2cc(-c3ccc4nc(C5CCOCC5)[nH]c(=O)c4c3)ccc2n1 [Example 81, 6-(2-methylimidazo[1,2-a]pyridin-6-yl)-2-(tetrahydro-2H4-pyran-4-yl)quinazolin-4(3H)-one]",* (equal to or higher than 100% but lower than 120%)
15,"COCCN1CCN(c2ccc3nc(-c4cc5c(C)nc(C)cn5n4)[nH]c(=O)c3c2)CC1 [Example 82, 2-(4,6-dimethylpyrazolo[1,5-a]pyrazin-2-yl)-6-[4-(2-methoxyethyl)piperazin-1-yl]quinazolin-4(3H)-one]",** (equal to or higher than 120% but lower than 150%)
16,"Cc1nc2ccc(-c3ccc4nc(C5CCN(C6CC6)CC5)[nH]c(=O)c4c3)cc2o1 [Example 83, 2-(1-cyclopropylpiperidin-4-yl)-6-(2-methyl-1,3-benzoxazol-6-yl)quinazolin-4(3H)-one]",** (equal to or higher than 120% but lower than 150%)
17,"Cc1cn2cc(-c3ccc4nc(C5(C)CCN(C)CC5)[nH]c(=O)c4c3)ccc2n1 [Example 84, 2-(1,4-dimethylpiperidin-4-yl)-6-(2-methylimidazo[1,2-a]pyridin-6-yl)quinazolin-4(3H)-one]",* (equal to or higher than 100% but lower than 120%)
18,"Cc1cn2cc(-c3ccc4nc(C5(F)CCN(C6CC6)CC5)[nH]c(=O)c4c3)cc(F)c2n1 [Example 85, 2-(4-fluoro-1-cyclopropylpiperidin-4-yl)-6-(8-fluoro-2-methylimidazo[1,2-a]pyridin-6-yl)quinazolin-4(3H)-one]",**** (equal to or higher than 180%)
19,"Cc1cn2cc(-c3ccc4nc(C5(F)CCN(C)CC5)[nH]c(=O)c4c3)cc(F)c2n1 [Example 86, 2-(4-fluoro-1-methylpiperidin-4-yl)-6-(8-fluoro-2-methylimidazo[1,2-a]pyridin-6-yl)quinazolin-4(3H)-one]",*** (equal to or higher than 150% but lower than 180%)
20,"COc1ccc(-c2cc(F)c3nc(C4CCN(C)CC4)[nH]c(=O)c3c2)cc1F [Example 87, 8-fluoro-6-(3-fluoro-4-methoxyphenyl)-2-(1-methylpiperidin-4-yl)quinazolin-4(3H7)-one]",**** (equal to or higher than 180%)
21,"Cc1cn2cc(-c3cc(C)c4nc(C5(F)CCN(C)CC5)[nH]c(=O)c4c3)cc(F)c2n1 [Example 89, 6-(8-fluoro-2-methylimidazo[1,2-a]pyridin-6-yl)-2-(4-fluoro-1-methylpiperidin-4-yl)-8-methylquinazolin-4(3H4)-one]",**** (equal to or higher than 180%)
22,"CCN1CCC(F)(c2nc3c(C)cc(-c4cc(F)c5nc(C)cn5c4)cc3c(=O)[nH]2)CC1 [Example 90, 2-(1-ethyl-4-fluoropiperidin-4-yl)-6-(8-fluoro-2-methylimidazo[1,2-a]pyridin-6-yl)-8-methylquinazolin-4(3H4)-one]",**** (equal to or higher than 180%)
23,"Cc1cn2cc(-c3ccc4nc(C5(F)CCN(C(C)C)CC5)[nH]c(=O)c4c3)cc(F)c2n1 [Example 91, 2-(4-fluoro-1-isopropylpiperidin-4-yl)-6-(8-fluoro-2-methylimidazo[1,2-a]pyridin-6-yl)quinazolin-4(3H)-one]",**** (equal to or higher than 180%)
24,"CCN1CCC(F)(c2nc3ccc(-c4cc(F)c5nc(C)cn5c4)cc3c(=O)[nH]2)CC1 [Example 92, 2-(1-Ethyl-4-fluoropiperidin-4-yl)-6-(8-fluoro-2-methylimidazo[1,2-a]pyridin-6-yl)quinazolin-4(3H)-one]",**** (equal to or higher than 180%)
25,"Cc1cn2cc(-c3ccc4nc(C5(F)CCN(CC(F)F)CC5)[nH]c(=O)c4c3)cc(F)c2n1 [Example 93, 2-[1-(2,2-difluoroethyl)-4-fluoropiperidin-4-yl]-6-(8-fluoro-2-methylimidazo[1,2-a]pyridin-6-yl)quinazolin-4(3H)-one]",*** (equal to or higher than 150% but lower than 180%)
26,"Cc1cn2cc(-c3cc(F)c4nc(C5(F)CCN(C)CC5)[nH]c(=O)c4c3)ccc2n1 [Example 94, 8-fluoro-2-(4-fluoro-1-methylpiperidin-4-yl)-6-(2-methylimidazo[1,2-a]pyridin-6-yl)quinazolin-4(3H)-one]",*** (equal to or higher than 150% but lower than 180%)
27,"CCN1CCC(F)(c2nc3c(F)cc(-c4ccc5nc(C)cn5c4)cc3c(=O)[nH]2)CC1 [Example 95, 2-(1-ethyl-4-fluoropiperidin-4-yl)-8-fluoro-6-(2-methylimidazo[1,2-a]pyridin-6-yl)quinazolin-4(3H)-one]",*** (equal to or higher than 150% but lower than 180%)
28,"Cc1cn2cc(-c3cc(F)c4nc(C5(F)CCN(C(C)C)CC5)[nH]c(=O)c4c3)ccc2n1 [Example 96, 8-fluoro-2-(4-fluoro-1-isopropylpiperidin-4-yl)-6-(2-methylimidazo[1,2-a]pyridin-6-yl)quinazolin-4(3H)-one]",*** (equal to or higher than 150% but lower than 180%)
